According to US20250263436A1, “BROAD-SPECTRUM ANTIVIRAL DRUG FOR ENTEROVIRUS, AND APPLICATION” (WUHAN INSTITUTE OF VIROLOGY, CHINESE ACADEMY OF SCIENCES, priority 2020, published 2025):
Where “and” joins values, the source holds several entries; their conditions need not be identical. Equal values may be shown once.

Legend:
EV71 [1] = experiment: Inhibition of EV71 in Vero cells (viral RNA, qRT-PCR); format: cell-based, enterovirus 71 (EV71); settings: for Percentage of viral RNA in Vero cells (%): EV71, 24 h after infection
Description: (1) Different cells were plated in a 24-well plate.
(2) When the cells grew to a confluence of 70%-80%, the DMEM medium containing 10% serum was replaced with a DMEM medium containing 2% serum (the DMEM medium containing 2% serum was added in each well at an amount of 0.5 mL), and 5 μL of EV71 virus of 1×10^6 PFU/mL was added to each well.
(3) After 1 h, different polypeptides (RQ or control TAT) with final concentrations of 0.3125 μM, 0.625 μM, 1.25 μM, 2.5 μM, and 5 μM were added respectively. The group without polypeptide added was used as a control.
(4) The samples were collected 24 h after the infection of EV71 virus, and RNA was extracted with the total RNA extraction kit.
(5) The supernatant was discarded, then 350 μL of TRK lysate was added to each well, and the plate was put on a shaker for 5 min.
(6) 350 μL of 70% ethanol (DEPC) was added to each well, and then the plate was put on a shaker for 5 min.
(7) The solution in each well was transferred to a RNA extraction column for 1 min of centrifugation at 12000 g.
(8) The solution obtained in the recovery tube was reloaded on the column again for 1 min of centrifugation at 12000 g.
(9) RNA washing buffer 1 was added in the column for 30 s of centrifugation at 12000 g.
(10) RNA washing buffer 2 was added in the column for 1 min of centrifugation at 12000 g.
(11) Step (10) was repeated.
(12) The column alone was centrifuged at 12000 g for 2 min to completely remove the residual RNA washing buffer.
(13) 50 μL of DEPC water was added to the column for 2 min of centrifugation at 12000 g.
(14) 2 μL of RNA sample was subjected to a fluorescence quantitative experiment using the one step qRT-PCR kit.
(1) Vero E6 cells were plated in a 24-well plate.
(3) After 1 h, different polypeptides (LQ or SQ) with final concentrations of 0.3125 μM, 0.625 μM, 1.25 μM, 2.5 μM, and 5 μM were added respectively. The group without polypeptide added was used as a control.

EV71 2C protein = molecular target: T1, EV71 2C protein (Human enterovirus 71, UniProt Q66478); experiment: Inhibition of helicase activity of EV71 2C protein in vitro (dsRNA unwinding); format: biochemical; settings: MBP-EV71 2C; dsRNA substrate; 37° C. 50 min
T1 construct: In vitro expression and purification of EV71 2C protein; made in house; host or cells: Sf9 (Spodoptera frugiperda) cells infected with recombinant baculovirus
T1 sequence (Q66478 1112-1440 limits assumed): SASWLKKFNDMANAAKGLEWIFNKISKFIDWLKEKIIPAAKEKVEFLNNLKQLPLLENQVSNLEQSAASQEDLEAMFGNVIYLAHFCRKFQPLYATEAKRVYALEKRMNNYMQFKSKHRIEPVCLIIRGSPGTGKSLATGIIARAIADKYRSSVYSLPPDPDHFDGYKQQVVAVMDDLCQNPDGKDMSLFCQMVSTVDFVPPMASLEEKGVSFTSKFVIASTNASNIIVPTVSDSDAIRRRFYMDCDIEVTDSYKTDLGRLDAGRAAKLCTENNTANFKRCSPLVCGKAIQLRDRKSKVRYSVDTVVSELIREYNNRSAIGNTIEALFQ
Description: (1) A strand labeled with HEX at a concentration of 0.2 pmol/μL was added with a complementary strand RNA at the same concentration to prepare a HEX-labeled double-stranded dsRNA substrate by annealing.
(2) Annealing process: the reaction system was kept at 75° C. for 3 min, cooled to 25° C. at a rate of 1° C. per minute, and then kept at 25° C. for 2 min.
(3) The target protein and the double-stranded substrate were prepared according to the standard unwinding experiment reaction system. 5 μg of polypeptide RQ and control TAT were added respectively, and single and double strands controls were set. The single strand sample was boiled at 75° C. for 3 min and then placed on ice for 2 min.
(4) The prepared system was mixed well and then placed at 37° C. for 50 min of reaction.
(5) A mixture obtained after the reaction was subjected to electrophoresis.
(6) Finally, Typhoon 9500 was used for direct scan to obtain a HEX signal.
During electrophoresis, the single strand ran faster than the double strand. Therefore, if the MBP-2C protein had helicase activity, it can unwind the double-stranded dsRNA substrate to release a single-stranded RNA, and then the lane would show two bands, upper and lower. The single-stranded RNA (lane 2) prepared by boiling at 75° C. was used as a positive control. The reaction without protein added (lane 1) was used as a negative control.

EV71 [2] = experiment: Inhibitory activity on EV71 in RD cells by CCK8 method; format: cell-based, enterovirus 71 (EV71); settings: for Inhibition rate on EV71 virus (%): RD cells, 0.1 MOI, 24 h, CCK8
Description: (1) RD cells were plated in a 96-well plate at 100 μL per well.
(2) When the cells grew to a confluence of 70%-80%, the DMEM medium containing 10% serum was replaced with a DMEM medium containing 2% serum.
(§1) (3) The polypeptide drug was gradiently diluted with the DMEM containing 2% FBS into concentrations of 0.15625 μM, 0.3125 μM, 0.625 μM, 1.25 μM, 2.5 μM, and 5 μM, and then added to a new 96-well plate at 100 μL per well, with 3 replicate wells for each concentration.
(4) The diluted virus was added to the above wells at 100 μL per well. The wells with no drug and no virus added and the wells with no drug but virus added were set as controls respectively, with a final concentration of virus of 0.1 MOI.
(4) The mixture was transferred into the 96-well plate plated with cells for another 24 h of culture, and the inhibitory activity of the polypeptide on the virus was determined by a CCK8 kit.
(5) The inhibition rates of different concentrations of the polypeptides on virus infection were calculated according to a calculation formula of: inhibition rate of polypeptide=(well with drug-well with virus)×100%/(well with no drug-well with virus).
as §1, with “concentration. (4) The diluted virus was added to the above wells at 100 μL per well. The wells with no drug and no virus added and the wells with no drug but virus added were set as controls respectively, with a final concentration of virus of 0.1 MOI.” for “concentration.”

With `N=C(N)NCCC[C@H](NC(=O)[C@H](CCCNC(=N)N)NC(=O)[C@H](CCCNC(=N)N)NC(=O)[C@H](CCC(N)=O)NC(=O)[C@H](CCCNC(=N)N)NC(=O)[C@H](CCCNC(=N)N)NC(=O)[C@H](CCCCN)NC(=O)[C@H](CCCCN)NC(=O)[C@H](CCCNC(=N)N)NC(=O)CNC(=O)[C@@H](N)Cc1ccc(O)cc1)C(=O)O` [TAT, YGRKKRRQRRR] the “Percentage of viral RNA in Vero cells (%)” value (shortened to “Percentage … (%)”) (EV71 [1]; polypeptide 0.3125 μM) was 115.6133% and 93.75% and 91.92%, the “Percentage … (%)” value (EV71 [1]; polypeptide 0.625 μM) was 121.4818% and 94.87% and 149.0928% and the “Percentage … (%)” value (EV71 [1]; polypeptide 1.25 μM) was 111.6527% and 97.24% and 100.8214%. For the same compound, the “Percentage … (%)” value (EV71 [1]; polypeptide 2.5 μM) was 125.8799% and 103.6078% and 137.9907%, the “Percentage … (%)” value (EV71 [1]; polypeptide 5 μM) was 136.8661% and 104.0616% and 88.68% and the anti-EV71 effect (EV71 [1]; Vero cells) was “no anti-EV71 effect”. For the same compound, the “helicase activity of EV71 2C” value (EV71 2C protein) was “did not affect the helicase activity of 2C”, the antiviral activity (EV71 [2]; EV71 in RD cells, CCK8 method) was “no antiviral activity” and the “Inhibition rate on EV71 virus (%)” value (EV71 [2]; polypeptide 0.15625 μM) was 1.38% and 5.231% and 2.294%. For the same compound, the “Inhibition rate on EV71 virus (%)” value (EV71 [2]; polypeptide 0.3125 μM) was 2.463% and 5.242% and 6.282%, the “Inhibition rate on EV71 virus (%)” value (EV71 [2]; polypeptide 0.625 μM) was 8.374% and 2.34% and 7.234% and the “Inhibition rate on EV71 virus (%)” value (EV71 [2]; polypeptide 1.25 μM) was 8.365% and 3.237% and 6.203%. For the same compound, the “Inhibition rate on EV71 virus (%)” value (EV71 [2]; polypeptide 2.5 μM) was 7.373% and 4.241% and 8.213%.
